According to patent publication US20230085307A1, “PYRIDAZINONE COMPOUND AND HERBICIDE” (NISSAN CHEMICAL CORPORATION, priority 2019, published 2023):

What was measured:
Japanese bulrush = experiment: Test Example 2: herbicidal activity, application during weed generation under submerged conditions (Table 17, symbol B); type: in vivo, Japanese bulrush (Schoenoplectus juncoides); details: AAH 320 g/ha; application during weed generation, submerged conditions
Procedure, shortened: (§1)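 3-wk visual-criteria score after one water-surface dose. Emulsion formulation, water-diluted to set rate; applied at 1–2 leaf stage; alluvial soil, 4 cm standing water; seeds co-sown; greenhouse 25–30° C.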

persian speedwell [1] = experiment: Test Example 4: herbicidal effect by soil treatment (Table 19, symbol R); type: in vivo, Persian speedwell (Veronica persica); details: 320 g/ha
Procedure, shortened: (§2)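 Step 1: sow seeds in sterilized diluvial soil, cover ~1.5 cm. Step 2: spray diluted emulsion onto soil surface at predetermined rate. Step 3: greenhouse, 25–30° C, three weeks. Step 4: grade effect on each plant by earlier criteria.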

oval-leafed pondweed [2] = experiment: Test Example 2: herbicidal activity, application during weed generation under submerged conditions (Table 17, symbol C); type: in vivo, oval-leafed pondweed (Monochoria vaginalis); details: AAH 320 g/ha; application during weed generation, submerged conditions
Procedure, shortened: as §1

windgrass = experiment: Test Example 4: herbicidal effect by soil treatment (Table 19, symbol L); type: in vivo, windgrass (Apera spica-venti); details: 320 g/ha
Procedure, shortened: as §2

barnyard grass = experiment: Test Example 5: herbicidal effect by foliage application, plastic box (Table 20, symbol H); type: in vivo, barnyard grass (Echinochloa crus-galli); details: foliage application, 320 g/ha, 3 weeks after application
Procedure, shortened: (§3)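 Foliar spray test: emulsion formulation diluted in water to a set application rate, sprayed onto 14-day-old plants raised in diluvial soil at 25° C to 30° C under glass. Both herbicidal effect and crop effect rated visually three weeks later.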

southern crabgrass = experiment: Test Example 5: herbicidal effect by foliage application, plastic box (Table 20, symbol F); type: in vivo, southern crabgrass (Digitaria ciliaris); details: foliage application, 320 g/ha, 3 weeks after application
Procedure, shortened: as §3

late watergrass = experiment: Test Example 1: herbicidal activity, application before weed generation under submerged conditions (Table 16, symbol A); type: in vivo, late watergrass (Echinochloa oryzicola); details: 320 g/ha applied herbicide
Procedure, shortened: (§4)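 Alluvial soil was flooded to 4 cm depth, weed seeds were sown mixed and 2.5-leaf rice seedlings were transplanted. On sowing day, the compound's emulsion, diluted in water to a set dose, was applied to the water surface. Plants grew at 25–30 °C and were scored 0–5 after three weeks.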

velvetleaf = experiment: Test Example 5: herbicidal effect by foliage application, plastic box (Table 20, symbol M); type: in vivo, velvetleaf (Abutilon theophrasti); details: foliage application, 320 g/ha, 3 weeks after application
Procedure, shortened: as §3

rice flat sedge = experiment: Test Example 3: herbicidal effect by foliage application, Wagner pot (Table 18, symbol E); type: in vivo, rice flat sedge (Cyperus iria); details: 320 g/ha
Procedure, shortened: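 Plants were sown in alluvial soil held under 0.1–0.5 cm standing water and grown 14 days in a greenhouse at 25–30 °C. An emulsifiable formulation, water-diluted to the set dose, was then sprayed onto the foliage, and effects were scored three weeks later using previously defined criteria.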

green foxtail = experiment: Test Example 5: herbicidal effect by foliage application, plastic box (Table 20, symbol G); type: in vivo, green foxtail (Setaria viridis); details: foliage application, 320 g/ha, 3 weeks after application
Procedure, shortened: as §3

persian speedwell [3] = experiment: Test Example 5: herbicidal effect by foliage application, plastic box (Table 20, symbol R); type: in vivo, Persian speedwell (Veronica persica); details: foliage application, 320 g/ha, 3 weeks after application
Procedure, shortened: as §3

wild oat = experiment: Test Example 4: herbicidal effect by soil treatment (Table 19, symbol I); type: in vivo, wild oat (Avena fatua); details: 320 g/ha
Procedure, shortened: as §2

Italian ryegrass = experiment: Test Example 4: herbicidal effect by soil treatment (Table 19, symbol K); type: in vivo, Italian ryegrass (Lolium multiflorum); details: 320 g/ha
Procedure, shortened: as §2

oval-leafed pondweed [4] = experiment: Test Example 1: herbicidal activity, application before weed generation under submerged conditions (Table 16, symbol C); type: in vivo, oval-leafed pondweed (Monochoria vaginalis); details: 320 g/ha applied herbicide
Procedure, shortened: as §4

| SMILES | herbicidal effect rating, B: Japanese bulrush (Japanese bulrush) | herbicidal effect rating, R: persian speedwell (persian speedwell [1]) | herbicidal effect rating, C: oval-leafed pondweed (oval-leafed pondweed [2]) | herbicidal effect rating, L: windgrass (windgrass) | effect on barnyard grass (H) (barnyard grass) | effect on southern crabgrass (F) (southern crabgrass) | Herbicidal effect on A: late watergrass (grade 0-5) (late watergrass) | effect on velvetleaf (M) (velvetleaf) | herbicidal effect on E (rice flat sedge), rating 0-5 (rice flat sedge) | effect on green foxtail (G) (green foxtail) | effect on persian speedwell (R) (persian speedwell [3]) | herbicidal effect rating, I: wild oat (wild oat) | herbicidal effect rating, K: Italian ryegrass (Italian ryegrass) | Herbicidal effect on C: oval-leafed pondweed (grade 0-5) (oval-leafed pondweed [4]) |
| --- | --- | --- | --- | --- | --- | --- | --- | --- | --- | --- | --- | --- | --- | --- |
| CCCC(=O)Oc1c(C)nn(C)c(=O)c1-c1c(-c2ccc(OC)cc2)sc2ccc(F)cc12 [2-027] | 4 (Herbicidal rate of 70% or more and less than 90%) | 5 (Herbicidal rate of 90% or more (almost completely withered)) | 5 (Herbicidal rate of 90% or more (almost completely withered)) | 0 (Herbicidal rate of 5% or less (almost no effect)) | 5 (Herbicidal rate of 90% or more (almost completely withered)) | 4 (Herbicidal rate of 70% or more and less than 90%) | 4 (Herbicidal rate of 70% or more and less than 90%) | 5 (Herbicidal rate of 90% or more (almost completely withered)) | 5 (Herbicidal rate of 90% or more (almost completely withered)) | 4 (Herbicidal rate of 70% or more and less than 90%) | 5 (Herbicidal rate of 90% or more (almost completely withered)) | 2 (Herbicidal rate of 20% or more and less than 40%) | 4 (Herbicidal rate of 70% or more and less than 90%) | 4 (Herbicidal rate of 70% or more and less than 90%) |
| CCOc1ccc(-c2sc3ccc(F)cc3c2-c2c(O)c(C)nn(C)c2=O)cc1 [2-030] | 2 (Herbicidal rate of 20% or more and less than 40%) | 5 (Herbicidal rate of 90% or more (almost completely withered)) | 0 (Herbicidal rate of 5% or less (almost no effect)) | 0 (Herbicidal rate of 5% or less (almost no effect)) | 5 (Herbicidal rate of 90% or more (almost completely withered)) | 3 (Herbicidal rate of 40% or more and less than 70%) | 3 (Herbicidal rate of 40% or more and less than 70%) | 5 (Herbicidal rate of 90% or more (almost completely withered)) | 5 (Herbicidal rate of 90% or more (almost completely withered)) | 2 (Herbicidal rate of 20% or more and less than 40%) | 5 (Herbicidal rate of 90% or more (almost completely withered)) | 0 (Herbicidal rate of 5% or less (almost no effect)) | 0 (Herbicidal rate of 5% or less (almost no effect)) | 0 (Herbicidal rate of 5% or less (almost no effect)) |
| CCCC(=O)Oc1c(C)nn(C)c(=O)c1-c1c(-c2ccc(OCC)cc2)sc2ccc(F)cc12 [2-031] | 3 (Herbicidal rate of 40% or more and less than 70%) | 4 (Herbicidal rate of 70% or more and less than 90%) | 3 (Herbicidal rate of 40% or more and less than 70%) | 0 (Herbicidal rate of 5% or less (almost no effect)) | 4 (Herbicidal rate of 70% or more and less than 90%) | 0 (Herbicidal rate of 5% or less (almost no effect)) | 3 (Herbicidal rate of 40% or more and less than 70%) | 5 (Herbicidal rate of 90% or more (almost completely withered)) | 4 (Herbicidal rate of 70% or more and less than 90%) | 2 (Herbicidal rate of 20% or more and less than 40%) | 5 (Herbicidal rate of 90% or more (almost completely withered)) | 0 (Herbicidal rate of 5% or less (almost no effect)) | 0 (Herbicidal rate of 5% or less (almost no effect)) | 4 (Herbicidal rate of 70% or more and less than 90%) |
| CCCOc1ccc(-c2sc3ccc(F)cc3c2-c2c(OC(=O)CCC)c(C)nn(C)c2=O)cc1 [2-033] | 4 (Herbicidal rate of 70% or more and less than 90%) | 4 (Herbicidal rate of 70% or more and less than 90%) | 4 (Herbicidal rate of 70% or more and less than 90%) | 0 (Herbicidal rate of 5% or less (almost no effect)) | 5 (Herbicidal rate of 90% or more (almost completely withered)) | 2 (Herbicidal rate of 20% or more and less than 40%) | 4 (Herbicidal rate of 70% or more and less than 90%) | 5 (Herbicidal rate of 90% or more (almost completely withered)) | 5 (Herbicidal rate of 90% or more (almost completely withered)) | 5 (Herbicidal rate of 90% or more (almost completely withered)) | 5 (Herbicidal rate of 90% or more (almost completely withered)) | 0 (Herbicidal rate of 5% or less (almost no effect)) | 0 (Herbicidal rate of 5% or less (almost no effect)) | 4 (Herbicidal rate of 70% or more and less than 90%) |
| CCCC(=O)Oc1c(C)nn(C)c(=O)c1-c1c(-c2ccc(OC(C)C)cc2)sc2ccc(F)cc12 [2-035] | 4 (Herbicidal rate of 70% or more and less than 90%) | 5 (Herbicidal rate of 90% or more (almost completely withered)) | 4 (Herbicidal rate of 70% or more and less than 90%) | 0 (Herbicidal rate of 5% or less (almost no effect)) | 5 (Herbicidal rate of 90% or more (almost completely withered)) | 2 (Herbicidal rate of 20% or more and less than 40%) | 5 (Herbicidal rate of 90% or more (almost completely withered)) | 5 (Herbicidal rate of 90% or more (almost completely withered)) | 5 (Herbicidal rate of 90% or more (almost completely withered)) | 4 (Herbicidal rate of 70% or more and less than 90%) | 5 (Herbicidal rate of 90% or more (almost completely withered)) | 0 (Herbicidal rate of 5% or less (almost no effect)) | 0 (Herbicidal rate of 5% or less (almost no effect)) | 4 (Herbicidal rate of 70% or more and less than 90%) |
| CCCCOc1ccc(-c2sc3ccc(F)cc3c2-c2c(OC(=O)CCC)c(C)nn(C)c2=O)cc1 [2-037] | 1 (Herbicidal rate of 5% or more and less than 20%) | 3 (Herbicidal rate of 40% or more and less than 70%) | 3 (Herbicidal rate of 40% or more and less than 70%) | 0 (Herbicidal rate of 5% or less (almost no effect)) | 2 (Herbicidal rate of 20% or more and less than 40%) | 2 (Herbicidal rate of 20% or more and less than 40%) | 3 (Herbicidal rate of 40% or more and less than 70%) | 5 (Herbicidal rate of 90% or more (almost completely withered)) | 4 (Herbicidal rate of 70% or more and less than 90%) | 3 (Herbicidal rate of 40% or more and less than 70%) | 5 (Herbicidal rate of 90% or more (almost completely withered)) | 0 (Herbicidal rate of 5% or less (almost no effect)) | 0 (Herbicidal rate of 5% or less (almost no effect)) | 3 (Herbicidal rate of 40% or more and less than 70%) |
